We go through 47 molecules from patent publication US12459957B2, “Therapeutic compounds and methods” (GENENTECH, INC., priority 2021, dated 2025).

A word on the IC50: it is the midpoint of a concentration-inhibition curve. Read a high IC50 as lower potency.

One assay concerns neutrophils (PMA-stimulated NETosis). As to the kind of experiment: Quantification of NETosis using SYTOX Green. Format: cell-based, human. The following applies: Apocynin at 100 uM; NET-forming cells as percentage of total cells. From the text:
Semi-automated analysis of both phase and fluorescence images of SYTOX Green-stained neutrophils used a MATLAB algorithm. Total cells were counted by scoring phase standard deviation and radial symmetry. NETosis was classified in cells by measuring the DNA area in the fluorescence image and comparing with a select internal training set for each experiment. Unstimulated cells and PMA-stimulated, pyocyanin-inhibited cells served as negative controls. PMA-stimulated cells served as a positive control. NET-forming cells are presented as a percentage of total cells.
For `COc1cc(C(C)=O)ccc1O` [Apocynin, reference compound], the “% NETosis” value turned out to be 29.06%.

The assay is the same for the next values; noted with them: Homo sapiens, Neutrophil; NETosis, SYTOX Green-stained neutrophils, PMA-stimulated.
As for `COc1cccc(-c2cc3n(n2)Cc2ccc(NC(C)=O)cc2OC3)c1` [Example 2, N-(2-(3-Methoxyphenyl)-4H,10H-benzo[f]pyrazolo[5,1-c][1,4]oxazepin-7-yl)acetamide], the IC50 came out at 900 ± 200 nM.
The same measure, in the same setting: the same measure for `COc1ccc(-c2cc3n(n2)Cc2ccc(NC(C)=O)cc2OC3)cc1` [Example 3, N-(2-(4-Methoxyphenyl)-4H,10H-benzo[f]pyrazolo[5,1-c][1,4]oxazepin-7-yl)acetamide]: 520 ± 60 nM; for `CC#CCC(=O)Nc1cccc(-c2cc3n(n2)Cc2ccc(NC(C)=O)cc2OC3)c1` [Example 4, N-(3-(7-acetamido-4H,10H-benzo[f]pyrazolo[5,1-c][1,4]oxazepin-2-yl)phenyl)pent-3-ynamide]: 800 ± 20 nM; for `CC(=O)Nc1ccc2c(c1)OCc1cc(-c3cccc(C#CCCCO)c3)nn1C2` [Example 5, N-(2-(3-(5-hydroxypent-1-yn-1-yl)phenyl)-4H,10H-benzo[f]pyrazolo[5,1-c][1,4]oxazepin-7-yl)acetamide]: 3000 ± 1000 nM.

Staying with this assay, now noted: compound at 5 uM; NET-forming cells as percentage of total cells; vehicle 79.66, untreated 14.54.
On to `Cn1cc(-c2ccc3c(c2)OCc2cc(-c4ccccc4)nn2C3)cn1` [Example 11], for which the “5 uM (% NETosis)” value came to 80.81%.
Consider `N#CCn1cc(-c2ccc3c(c2)OCc2cc(-c4ccccc4)nn2C3)cn1` [Example 12, 2-(4-(2-phenyl-4H,10H-benzo[f]pyrazolo[5,1-c][1,4]oxazepin-7-yl)-1H-pyrazol-1-yl)acetonitrile], for which the “5 uM (% NETosis)” value came out at 81.41%.
On to `c1ccc(-c2cc3n(n2)Cc2ccc(-c4cnc5n4CCCC5)cc2OC3)cc1` [Example 13], for which the “5 uM (% NETosis)” value stood at 80.46%.
Same read-out and setting: then `c1ccc(-c2cc3n(n2)Cc2ccc(-c4cnn5cccnc45)cc2OC3)cc1` [Example 14], with 83.04%; and `c1ccc(-c2cc3n(n2)Cc2ccc(-c4cnc5ncccn45)cc2OC3)cc1` [Example 15], with 77.26%.
On the same count and under the same terms, then `c1ccc(-c2cc3n(n2)Cc2ccc(-c4cncs4)cc2OC3)cc1` [Example 16], with 80.91%; and `c1ccc(-c2cc3n(n2)Cc2ccc(-c4cn[nH]c4)cc2OC3)cc1` [Example 17], with 76.49%; and `Cn1cc(C#N)c(Nc2ccc3c(c2)OCc2cc(-c4ccccc4)nn2C3)n1` [Example 18], with 79.81%.
Consider `OCCn1cc(Nc2ccc3c(c2)OCc2cc(-c4ccccc4)nn2C3)cn1` [Example 20], for which the “5 uM (% NETosis)” value worked out at 77.97%.
On to `c1ccc(-c2cc3n(n2)Cc2ccc(NC4CCCC4)cc2OC3)cc1` [Example 21, N-cyclopentyl-2-phenyl-4H,10H-benzo[f]pyrazolo[5,1-c][1,4]oxazepin-7-amine], for which the “5 uM (% NETosis)” value came to 86.47%.
The same measure, in the same setting: then `Oc1cc(Nc2ccc3c(c2)OCc2cc(-c4ccccc4)nn2C3)[nH]n1` [Example 22], with 79.55%; and `c1ccc(-c2cc3n(n2)Cc2ccc(NC4CCC4)cc2OC3)cc1` [Example 23], with 86.22%; and `CCc1n[nH]c(Nc2ccc3c(c2)OCc2cc(-c4ccccc4)nn2C3)c1Cl` [Example 24], with 81.55%.
`Cn1cc(Nc2ccc3c(c2)OCc2cc(-c4ccccc4)nn2C3)cn1` [Example 25]: the “5 uM (% NETosis)” value was 78.63%.
On the same count and under the same terms, then `c1ccc(-c2cc3n(n2)Cc2ccc(NC4CC4)cc2OC3)cc1` [Example 26], with 78.70%.
On the same count and under the same terms, then `Clc1cc(Nc2ccc3c(c2)OCc2cc(-c4ccccc4)nn2C3)[nH]n1` [Example 27], with 54.56%.
On the same count and under the same terms, then `Clc1[nH]ncc1Nc1ccc2c(c1)OCc1cc(-c3ccccc3)nn1C2` [Example 28, N-(5-chloro-1H-pyrazol-4-yl)-2-phenyl-4H,10H-benzo[f]pyrazolo[5,1-c][1,4]oxazepin-7-amine], with 44.49%; and `N#C[C@H]1C[C@H](Nc2ccc3c(c2)OCc2cc(-c4ccccc4)nn2C3)C1` [Example 29], with 87.44%.
For the molecule `c1ccc(-c2cc3n(n2)Cc2ccc(NC4COC4)cc2OC3)cc1` [Example 30], the “5 uM (% NETosis)” value was 84.70%.
Still for that read-out and setting: then `Cn1cc(Nc2ccc3c(c2)OCc2cc(-c4ccccc4)nn2C3)c(Cl)n1` [Example 31], with 85.26%; and `Cn1nccc1Nc1ccc2c(c1)OCc1cc(-c3ccccc3)nn1C2` [Example 32], with 76.40%.
On the same count and under the same terms, then `Cn1cc(Nc2ccc3c(c2)OCc2cc(-c4ccccc4)nn2C3)c(C#N)n1` [Example 34], with 80.80%; and `Cc1cn[nH]c1Nc1ccc2c(c1)OCc1cc(-c3ccccc3)nn1C2` [Example 35], with 73.98%; and `FC(F)(F)CNc1ccc2c(c1)OCc1cc(-c3ccccc3)nn1C2` [Example 37], with 83.25%.
On the same count and under the same terms, then `CC(C)(C)Nc1ccc2c(c1)OCc1cc(-c3ccccc3)nn1C2` [Example 38], with 81.48%.
With `FC1(F)CC1CNc1ccc2c(c1)OCc1cc(-c3ccccc3)nn1C2` (centres unmarked) [Example 40], the “5 uM (% NETosis)” value stood at 71.44%.
The same measure, in the same setting: the same measure for `C#CCNc1ccc2c(c1)OCc1cc(-c3ccccc3)nn1C2` [Example 41]: 73.65%; for `OCC1(Nc2ccc3c(c2)OCc2cc(-c4ccccc4)nn2C3)CC1` [Example 42]: 82.57%; for `CSc1ccccc1-c1cc2n(n1)Cc1ccc(NC(C)=O)cc1OC2` [Example 43]: 49.48%.
Same read-out and setting: then `C#Cc1ccccc1-c1cc2n(n1)Cc1ccc(NC(C)=O)cc1OC2` [Example 44], with 83.27%; and `CC(=O)Nc1ccc2c(c1)OCc1cc(-c3ccc(F)cc3C#N)nn1C2` [Example 45], with 56.95%; and `CC(=O)Nc1ccc2c(c1)OCc1cc(-c3ccc(F)cc3CO)nn1C2` [Example 46, N-(2-(4-fluoro-2-(hydroxymethyl)phenyl)-4H,10H-benzo[f]pyrazolo[5,1-c][1,4]oxazepin-7-yl)acetamide], with 51.25%.
Consider `CC(=O)Nc1ccc2c(c1)OCc1cc(-c3cccc(CC#N)c3)nn1C2` [Example 47], for which the “5 uM (% NETosis)” value is reported as 62.82%.
As to `CC(=O)Nc1ccc2c(c1)OCc1cc(-c3c(F)cccc3F)nn1C2` [Example 48], the “5 uM (% NETosis)” value was 42.40%.
Turning to `CC(=O)Nc1ccc2c(c1)OCc1cc(-c3c(O)cccc3F)nn1C2` [Example 49], the “5 uM (% NETosis)” value was 42.24%.
On the same count and under the same terms, then `CC(=O)Nc1ccc2c(c1)OCc1cc(-c3ccccc3C)nn1C2` [Example 50], with 72.49%; and `CC(=O)Nc1ccc2c(c1)OCc1cc(-c3ccc(F)cc3O)nn1C2` [Example 51], with 57.20%; and `CC(=O)Nc1ccc2c(c1)OCc1cc(-c3cnco3)nn1C2` [Example 52], with 66.03%.
`CC(=O)Nc1ccc2c(c1)OCc1cc(-c3cncn3C)nn1C2` [Example 53]: the “5 uM (% NETosis)” value is 57.77%.
Consider `CC(=O)Nc1ccc2c(c1)OCc1cc(-c3cccc(F)c3)nn1C2` [Example 56], for which the “5 uM (% NETosis)” value came to 35.77%.
As to `CC(=O)Nc1ccc2c(c1)OCc1cc(-c3cc[nH]n3)nn1C2` [Example 57], the “5 uM (% NETosis)” value worked out at 87.44%.
On the same count and under the same terms, then `CC(=O)Nc1ccc2c(c1)OCc1cc(-c3c(C)cnn3C)nn1C2` [Example 59], with 66.88%.
